In paper PMC3226889 (Biochemistry, 2011):

Tests used:
APE1 redox activity = conditions: cell-based studies; ref [15], [17], [21], [23], [48]; cited from earlier work
APE1^ΔN38 = APE1^ΔN38 (Homo sapiens, UniProt P27695); test: NMR chemical shift perturbation titration; type: binding
p50 (NF-kB subunit) = p50 (NF-kB subunit) (human, UniProt P19838 42-367); test: EMSA
Chain of p50 (NF-kB subunit) (P19838 42-367): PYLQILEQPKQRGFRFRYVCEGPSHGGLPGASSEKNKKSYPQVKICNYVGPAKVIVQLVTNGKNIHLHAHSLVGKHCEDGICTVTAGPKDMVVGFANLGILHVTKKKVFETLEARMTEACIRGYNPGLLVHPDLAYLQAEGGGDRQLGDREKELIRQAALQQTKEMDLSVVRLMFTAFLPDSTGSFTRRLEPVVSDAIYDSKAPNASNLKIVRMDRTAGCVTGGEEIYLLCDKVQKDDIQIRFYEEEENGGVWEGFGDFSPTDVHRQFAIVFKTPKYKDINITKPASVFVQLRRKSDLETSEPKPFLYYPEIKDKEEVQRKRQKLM

Chain of APE1^ΔN38 (P27695 39-318): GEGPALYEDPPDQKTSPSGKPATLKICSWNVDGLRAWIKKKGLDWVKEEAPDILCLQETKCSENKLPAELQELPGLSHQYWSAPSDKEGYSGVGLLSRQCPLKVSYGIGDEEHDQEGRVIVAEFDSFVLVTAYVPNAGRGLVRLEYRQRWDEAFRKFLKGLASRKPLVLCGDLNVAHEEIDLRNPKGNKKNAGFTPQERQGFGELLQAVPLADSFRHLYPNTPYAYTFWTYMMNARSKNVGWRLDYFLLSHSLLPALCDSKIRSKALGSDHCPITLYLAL

Question: For `CCCCCCCCC/C(=C\C1=C(C)C(=O)C(OC)=C(OC)C1=O)C(=O)O` [E3330, (E)-3-[2-(5,6-dimethoxy-3-methyl-1,4-benzoquinonyl)]-2-nonylpropenoic acid], which “E3330 concentrations at which observed effects occur” value (APE1 redox activity) is on record?
Answer: Its value is 5 to 50 µM.

Question: Which results are given for `C/C(=C\C1=C(Cl)C(=O)c2ccccc2C1=O)C(=O)O` [RN7-60, (E)-3-(3-chloro-1,4-naphthoquinon-2-yl)-2-methylpropenoic acid]?
Answer: Kd (APE1^ΔN38): 264 ± 72 µM; covalent modification of Cys residues (APE1^ΔN38; NMR conditions including 0.5 mM DTT): no evidence for covalent modification of any Cys residue; fold tighter affinity of RN7-60 than E3330 (APE1^ΔN38; similar conditions): about 2 fold

B1: p50 DNA (dsDNA)
DNA 1: AAGGGACTTTCCGCTGGGGATTCCAT
DNA 2: ATGGAATCCCCAGCGGAAAGTCCCTT
modifications: 3'-terminal T of strand 1 is fluorescein-dT (printed as Y)
Question: Does B1 bind (p50 (NF-kB subunit))?
Answer: Result: binds
